Measurements as given in patent US12473295B2, “Substituted straight chain spiro derivatives” (Janssen Pharmaceutica NV, priority 2019, dated 2025).
pIC50: −log10 of the molar value. Structures can show the parent of a compound that is named as a salt. Where two headings read alike, the source gives them in different places.

What was measured:
[1] = biological target: menin/MLL (terbium chelate-labeled menin, FITC-MBM1 peptide) (Homo sapiens (Human), UniProt O00255); assay: Menin/MLL homogenous time-resolved fluorescence (HTRF) assay; assay type: binding;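 also: IC50 from percent inhibition of HTRF signal, normalized between wells without competitor and wells with a saturating competitor that displaces FITC-MBM1 from His-tagged menin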
Sequence of menin/MLL (terbium chelate-labeled menin, FITC-MBM1 peptide) (O00255 other isoform, or with tags, fused parts or gaps): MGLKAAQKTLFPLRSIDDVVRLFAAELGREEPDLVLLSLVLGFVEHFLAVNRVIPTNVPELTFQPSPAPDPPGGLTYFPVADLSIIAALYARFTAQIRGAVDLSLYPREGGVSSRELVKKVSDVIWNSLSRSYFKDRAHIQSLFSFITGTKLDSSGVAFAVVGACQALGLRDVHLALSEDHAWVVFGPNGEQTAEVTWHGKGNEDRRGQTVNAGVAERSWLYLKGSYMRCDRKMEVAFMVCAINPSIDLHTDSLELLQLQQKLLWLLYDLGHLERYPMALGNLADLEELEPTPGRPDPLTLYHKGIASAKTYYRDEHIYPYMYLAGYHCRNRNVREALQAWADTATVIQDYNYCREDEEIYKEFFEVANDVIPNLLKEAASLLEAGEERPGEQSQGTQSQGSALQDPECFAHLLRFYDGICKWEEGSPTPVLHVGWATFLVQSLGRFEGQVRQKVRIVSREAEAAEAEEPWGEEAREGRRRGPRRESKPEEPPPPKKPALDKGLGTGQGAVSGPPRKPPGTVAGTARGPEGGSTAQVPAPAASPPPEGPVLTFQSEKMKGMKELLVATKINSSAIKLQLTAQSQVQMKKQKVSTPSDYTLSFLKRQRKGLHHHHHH

MOLM14 cells = assay: Proliferation assay (spheroid growth, 8 days), MOLM14; assay type: cell-based, human; settings: MOLM14, 8 days, read-out: spheroid assay_OneTime MOLM14 IC50;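 also: spheroid size read as confluence by live-cell imaging, compounds added at a range of concentrations with 0.3% DMSO, DMSO-treated wells = 0%, highest reference dose = low control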
OCI-AML3 cells = assay: Proliferation assay (spheroid growth, 8 days), OCI-AML3; assay type: cell-based, human; settings: OCI-AML3, 8 days
Outline: (§1)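 200 MOLM14 (MLL-AF9), 200 OCI-AML3 (NPM1c) or 300 KO-52 (MLL wildtype) cells were grown as spheroids in ultra-low attachment wells with compound, 0.3% DMSO, for 8 days at 37 °C. Confluence was imaged on day 8, normalized to DMSO and top-dose reference compound. IC50 came from a variable-slope fit constrained 0–100%.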

KO-52 cells = assay: Proliferation assay (spheroid growth, 8 days), KO-52 control cell line; assay type: cell-based, human; settings: read-out: spheroid assay_OneTime KO-52 IC50
Outline: as §1

MEIS1 mRNA = MEIS1 mRNA expression assay (Quantigene Singleplex) in MOLM14 cells; assay type: cell-based, human; settings: 48 hours incubation;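 also: MEIS1 transcript levels read by probe hybridization and normalized to RPL28 mRNA, with IC50 fitted to fold changes across a rising compound concentration series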
[2] = HTRF-30 min incubation IC50, 30 min incubation

Row | pIC50 [1, 2] | pIC50 (MOLM14 cells; Homo sapiens, MOLM-14, […]) | pIC50 (OCI-AML3 cells; Homo sapiens, OCI-AML-3, […]) | pIC50 (MEIS1 mRNA; Homo sapiens, MOLM-14, 48 h) | pIC50 ([1]; read-out: HTRF-30 min incubation IC50, 30 min incubation) | pIC50 (MOLM14 cells) | pIC50 (OCI-AML3 cells) | pIC50 (MEIS1 mRNA) | SMILES | pIC50 (KO-52 cells; Homo sapiens, […]) | pIC50 (KO-52 cells)
1 | 9.37 | 7.26 | 6.47 | 7.47 | – | – | – | – | CCN(C(=O)c1cc(F)ccc1Oc1nncnc1N1CCC2(C1)CN([C@H](CCCN(C)C[C@@H](C)C(=O)N(C)C)C(C)C)C2)C(C)C (single isomer, unassigned) [Compound 188] | < 4.82 | –
2 | 9.66 | 7.52 | 6.72 | 7.72 | – | – | – | – | CCN(C(=O)c1cc(F)ccc1Oc1nncnc1N1CCC2(C1)CN([C@H](CCCN(C)C[C@H](C)C(=O)N(C)C)C(C)C)C2)C(C)C (single isomer, unassigned) [Compound 189, 2-((5-(2-((R)-6-(((*S)-3-(dimethylamino)-2-methyl-3-oxopropyl)(methyl)amino)-2-methylhexan-3-yl)-2,6-diazaspiro[3.4]octan-6-yl)-1,2,4-triazin-6-yl)oxy)-N-ethyl-5-fluoro-N-isopropylbenzamide fumarate] | < 4.82 | –
3 | – | – | – | – | 9.29 | 7.00 | 5.88 | 6.92 | CCN(C(=O)c1cc(F)ccc1Oc1nnccc1N1CCC2(C1)CN([C@H](CCCN(C)C)C(C)C)C2)C(C)C (single isomer, unassigned) [Compound 77, (*R)-2-((4-(2-(6-(dimethylamino)-2-methylhexan-3-yl)-2,6-diazaspiro[3.4]octan-6-yl)pyridazin-3-yl)oxy)-N-ethyl-5-fluoro-N-isopropylbenzamide] | – | 4.86
4 | 9.82 | 7.08 | 6.44 | 6.89 | – | – | – | – | CCN(C(=O)c1cc(F)ccc1Oc1nncnc1N1CCC2(C1)CN([C@H](CCCN(C)C(CO)CO)C(C)C)C2)C(C)C [Compound 256, (R)-2-((5(2-(6-((1,3-dihydroxypropan-2-yl)(methyl)amino)-2-methylhexan-3-yl)-2,6-diazaspiro[3.4]octan-6-yl)-1,2,4-triazin-6-yl)oxy)-N-ethyl-5-fluoro-N-isopropylbenzamide fumarate] | < 4.82 | –
5 | 10.17 | < 6.03 | 5.49 | < 6.00 | – | – | – | – | CCN(C(=O)c1cc(F)ccc1Oc1nncnc1N1CCC2(C1)CN([C@H](CCNCCC(N)=O)C(C)C)C2)C(C)C (single isomer, unassigned) [Compound 278, (*R)-2-((5-(2-(1-((3-amino-3-oxopropyl)amino)-4-methylpentan-3-yl)-2,6-diazaspiro[3.4]octan-6-yl)-1,2,4-triazin-6-yl)oxy)-N-ethyl-5-fluoro-N-isopropylbenzamide fumarate] | < 4.82 | –
6 | 8.99 | 6.80 | 6.89 | 6.57 | – | – | – | – | CCN(C(=O)c1cc(F)ccc1Oc1nncnc1N1CCC2(C1)CN([C@H](CCCN(C)C[C@H](O)COC)C(C)C)C2)C(C)C [Compound 285, N-ethyl-5-fluoro-2-((5-(2-((R)-6-(((S)-2-hydroxy-3-methoxypropyl)(methyl)amino)-2-methylhexan-3-yl)-2,6-diazaspiro[3.4]octan-6-yl)-1,2,4-triazin-6-yl)oxy)-N-isopropylbenzamide formate] | < 4.82 | –
7 | 10.00 | 7.31 | 6.43 | 7.13 | – | – | – | – | CCN(C(=O)c1cc(F)ccc1Oc1nncnc1N1CCC2(C1)CN([C@H](CCCNCC(CO)OC)C(C)C)C2)C(C)C (stereo partly drawn) [Compound 168, N-ethyl-5-fluoro-2-((5-(2-((3R)-6-((3-hydroxy-2-methoxypropyl)amino)-2-methylhexan-3-yl)-2,6-diazaspiro[3.4]octan-6-yl)-1,2,4-triazin-6-yl)oxy)-N-isopropylbenzamide] | < 4.82 | –
